Source: ChEMBL document CHEMBL1148264, “Evaluation of series of isobenzofuranone dimers as PKCalpha ligands: implication for the distance between the two ligand binding sites” (Bioorg Med Chem Lett, 2004)

How the values were obtained:
[1] = molecular target: Protein kinase C alpha type (Homo sapiens) (UniProt P17252); assay: Displacement of [3H]PDBu from protein kinase C alpha at 100 uM; Range 40 to 60
[2] = molecular target: Protein kinase C alpha type (Homo sapiens) (UniProt P17252); assay: Displacement of [3H]PDBu from protein kinase C alpha at 100 uM; Range 60 to 80
[3] = molecular target: Protein kinase C alpha type (Homo sapiens) (UniProt P17252); assay: Displacement of [3H]PDBu from protein kinase C alpha at 100 uM; Range 80 to 100
[4] = molecular target: Protein kinase C alpha type (Homo sapiens) (UniProt P17252); assay: Displacement of [3H]PDBu from protein kinase C alpha at 100 uM; Range 0 to 20
[5] = molecular target: Protein kinase C alpha type (Homo sapiens) (UniProt P17252); assay: Displacement of [3H]PDBu from protein kinase C alpha at 100 uM; Range 20 to 40
[6] = molecular target: Protein kinase C alpha type (Homo sapiens) (UniProt P17252); assay: Displacement of [3H]PDBu from protein kinase C alpha at 100 uM; Range 20 to 30
[7] = molecular target: Protein kinase C alpha type (Homo sapiens) (UniProt P17252); assay: Displacement of [3H]PDBu from protein kinase C alpha at 100 uM; Range 2 to 40

SMILES: CC(=O)OC[C@@]1(CO)OC(=O)c2c(OCCCCCCCCCOc3cccc4c3C(=O)O[C@]4(CO)COC(C)=O)cccc21
- inhibition [1]: 42%

SMILES: O=C(CCCCCCCCCCCCCCC(=O)OC[C@@]1(CO)OC(=O)c2c(OCc3ccccc3)cccc21)CC[C@@]1(CO)OC(=O)c2c(OCc3ccccc3)cccc21
- inhibition [1]: 54%

SMILES: CCCCCCCCCCCCOc1cccc2c1C(=O)O[C@]2(CO)COC(C)=O
- inhibition [2]: 70%

SMILES: CC(=O)OC[C@@]1(CO)OC(=O)c2c(OCCCCCCCCCCCCCCOc3cccc4c3C(=O)O[C@]4(CO)COC(C)=O)cccc21
- inhibition [3]: 90%

SMILES: O=C(CCCCCCC(=O)OC[C@@]1(CO)OC(=O)c2c(OCc3ccccc3)cccc21)CC[C@@]1(CO)OC(=O)c2c(OCc3ccccc3)cccc21
- inhibition [4]: 19%

SMILES: CC(=O)OC[C@@]1(CO)OC(=O)c2c(OCCCCCCCCCCCCCCCCCCCCCCOc3cccc4c3C(=O)O[C@]4(CO)COC(C)=O)cccc21
- inhibition [5]: 25%

SMILES: O=C(CCCCCCCCC(=O)OC[C@@]1(CO)OC(=O)c2c(OCc3ccccc3)cccc21)CC[C@@]1(CO)OC(=O)c2c(OCc3ccccc3)cccc21
- inhibition [1]: 41%

SMILES: O=C(CCCCCCCCCCCCCCCCC(=O)OC[C@@]1(CO)OC(=O)c2c(OCc3ccccc3)cccc21)CC[C@@]1(CO)OC(=O)c2c(OCc3ccccc3)cccc21
- inhibition [6]: 30%

SMILES: CC(=O)OC[C@@]1(CO)OC(=O)c2c(OCCCCCCCCCCCCCOc3cccc4c3C(=O)O[C@]4(CO)COC(C)=O)cccc21
- inhibition [3]: 85%

SMILES: CC(=O)OC[C@@]1(CO)OC(=O)c2c(OCCCCCCCCCCOc3cccc4c3C(=O)O[C@]4(CO)COC(C)=O)cccc21
- inhibition [1]: 45%

SMILES: O=C(CCCCC(=O)OC[C@@]1(CO)OC(=O)c2c(OCc3ccccc3)cccc21)CC[C@@]1(CO)OC(=O)c2c(OCc3ccccc3)cccc21
- inhibition [4]: 18%

SMILES: O=C(CCCCCCCCCCCCCCCCCCC(=O)OC[C@@]1(CO)OC(=O)c2c(OCc3ccccc3)cccc21)CC[C@@]1(CO)OC(=O)c2c(OCc3ccccc3)cccc21
- inhibition [4]: 10%

SMILES: O=C(CC[C@@]1(CO)OC(=O)c2c(OCc3ccccc3)cccc21)c1ccccc1C(=O)OC[C@@]1(CO)OC(=O)c2c(OCc3ccccc3)cccc21
- inhibition [4]: 4%

SMILES: CC(=O)OC[C@@]1(CO)OC(=O)c2c(OCc3ccccc3)cccc21
- inhibition [7]: 30%

SMILES: CC(=O)OC[C@@]1(CO)OC(=O)c2c(OCCCCCCCCCCCCCCCOc3cccc4c3C(=O)O[C@]4(CO)COC(C)=O)cccc21
- inhibition [3]: 92%

SMILES: O=C(CCCCCCCCCCC(=O)OC[C@@]1(CO)OC(=O)c2c(OCc3ccccc3)cccc21)CC[C@@]1(CO)OC(=O)c2c(OCc3ccccc3)cccc21
- inhibition [2]: 70%

SMILES: CC(=O)OC[C@@]1(CO)OC(=O)c2c(OCCCCCCCCCCCCCCCCOc3cccc4c3C(=O)O[C@]4(CO)COC(C)=O)cccc21
- inhibition [3]: 91%

SMILES: CC(=O)OC[C@@]1(CO)OC(=O)c2c(OCCCCCCCCCCCCOc3cccc4c3C(=O)O[C@]4(CO)COC(C)=O)cccc21
- inhibition [2]: 70%

SMILES: O=C(CCCCCCCCCCCCC(=O)OC[C@@]1(CO)OC(=O)c2c(OCc3ccccc3)cccc21)CC[C@@]1(CO)OC(=O)c2c(OCc3ccccc3)cccc21
- inhibition [2]: 70%

SMILES: CCCCCCCCCCCC(=O)OC[C@@]1(CO)OC(=O)c2c(OCc3ccccc3)cccc21
- inhibition [3]: 90%

SMILES: O=C(CC[C@@]1(CO)OC(=O)c2c(OCc3ccccc3)cccc21)c1cccc(C(=O)OC[C@@]2(CO)OC(=O)c3c(OCc4ccccc4)cccc32)c1
- inhibition [4]: 4%

SMILES: O=C(CC[C@@]1(CO)OC(=O)c2c(OCc3ccccc3)cccc21)c1ccc(C(=O)OC[C@@]2(CO)OC(=O)c3c(OCc4ccccc4)cccc32)cc1
- inhibition [4]: 2%

SMILES: CC(=O)OC[C@@]1(CO)OC(=O)c2c(OCCCCCCCCCCCOc3cccc4c3C(=O)O[C@]4(CO)COC(C)=O)cccc21
- inhibition [1]: 60%

SMILES: CC(=O)OC[C@@]1(CO)OC(=O)c2c(OCCCCCCCCCCCCCCCCCCCCCCCCOc3cccc4c3C(=O)O[C@]4(CO)COC(C)=O)cccc21
- inhibition [4]: 19%
